Measured values from ChEMBL document CHEMBL1127964, “N-linked analogs of retinoid O-glucuronides: potential cancer chemopreventive/chemotherapeutic agents” (Bioorg Med Chem Lett, 1994).

Assays:
[1] = target: T1, Retinoic acid receptor gamma (Homo sapiens, UniProt P13631); assay: Inhibition of [3H]RA binding to Retinoic acid receptor RAR gamma
T1 sequence (P13631 whole entry): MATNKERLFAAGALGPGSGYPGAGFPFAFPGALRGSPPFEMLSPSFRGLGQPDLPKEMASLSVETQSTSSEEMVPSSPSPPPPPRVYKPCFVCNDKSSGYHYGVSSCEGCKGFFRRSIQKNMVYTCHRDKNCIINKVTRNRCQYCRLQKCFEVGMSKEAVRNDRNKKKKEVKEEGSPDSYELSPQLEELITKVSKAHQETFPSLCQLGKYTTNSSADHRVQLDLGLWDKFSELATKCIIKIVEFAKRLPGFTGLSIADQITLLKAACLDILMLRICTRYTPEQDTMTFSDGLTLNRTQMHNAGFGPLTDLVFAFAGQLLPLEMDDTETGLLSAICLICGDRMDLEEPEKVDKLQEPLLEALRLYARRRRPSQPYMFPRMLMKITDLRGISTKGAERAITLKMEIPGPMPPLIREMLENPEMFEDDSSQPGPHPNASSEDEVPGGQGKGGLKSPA

[2] = organism: Rattus norvegicus; assay: Antitumor activity against DMBA-induced mammary tumors in rats; format: functional
[3] = target: T1, Retinoic acid receptor gamma; assay: Inhibition of [3H]RA to binding Retinoic acid receptor RAR gamma

Row | Ki [1] [nM] | Ki [3] [nM] | Compound | Tumor [2] [number] | Tumor incidence [2] [%] | Tumor latency [2] [days]
1 | 280 |  | CC1=C(/C=C/C(C)=C/C=C/C(C)=C/C(=O)NC2OC(C(=O)O)C(O)C(O)C2O)C(C)(C)CCC1 (stereo unspecified) | 0.83 | 50 | 64
2 |  | 710 | CC1=C(/C=C/C(C)=C/C=C/C(C)=C/C(=O)NC2OC(CO)C(O)C(O)C2O)C(C)(C)CCC1 (stereo unspecified) | 0.92 | 58 | 64
3 |  |  | CC1=C(/C=C/C(C)=C/C=C/C(C)=C/C(=O)O)C(C)(C)CCC1 [TRETINOIN] | 1.17 | 83 | 49
